From US8987195B2 (priority 2012, dated 2015)
Like-named read-outs stand apart in the source and are kept apart here.

Key:
[1] = tested on: HCV genotype 1b replicon; assay: HCV replicon assay, genotype 1b replicon EC50; type: cell-based, Hepatitis C virus; conditions: Hepatitis C virus, genotype 1b replicon, read-out: EC50 [gt-1b]
Method in brief: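 Readout was replicon RNA copy number, by 32P-probe protection or TaqMan normalized to cellular cyclophilin A RNA, or luciferase activity for luciferase:Neo^r fusion lines. Cells were exposed to serially diluted compound for 24-48 hours without G418, then washed and lysed. EC50 derived from four-parameter fit relative to DMSO.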

[2] = target: HCV NS3/4A protease genotype 1b (Hepatitis C virus genotype 1b, UniProt P26663); assay: HCV NS3/4A protease time-resolved fluorescence (TRF) assay, Ki against genotype 1b; type: biochemical; conditions: IC50 [gt-1b] (nM), NS3/4A genotype 1b, enzyme 0.2 nM
Method in brief: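 NS3/4A enzyme was preincubated 30 min with inhibitor in 50 mM HEPES pH 7.5, 150 mM NaCl, 15% glycerol, 0.15% Triton X-100, 10 mM DTT, 0.1% PEG 8000; 25 nM europium TRF peptide substrate added, 2.5 h at room temperature. Enzyme: 0.2 nM (1b), 0.4 nM (A156T), 0.025 nM (3a). Ki from IC50 via Cheng-Prusoff.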

Row | Structure (SMILES) | EC50 [1] | IC50 [2] | EC50 ([1]; K+ salt) | IC50 ([2]; K+ salt)
1 | COc1ccc2nc(C(F)(F)F)c3c(c2c1)[C@](C)(F)C[C@]1(C[C@H]2C(=O)N[C@]4(C(=O)NS(=O)(=O)C5(C)CC5)C[C@H]4/C=C\CCCCC[C@H](NC(=O)OC(C)(C)C)C(=O)N2C1)O3 [Example 63, tert-Butyl ((1′R,2S,6S,13aS,14aR,16aS,Z)-1′-fluoro-9′-methoxy-1-methyl-14a-(((1-methylcyclopropyl)sulfonyl)carbamoyl)-5,16-dioxo-5′-(trifluoromethyl)-1′,2′,3,5,6,7,8,9,1011,13a,14,14a,15,16,16a-hexadecahydro-1H-spiro[cyclopropa[e]pyrrolo[1,2-a][1,4]diazacyclopentadecine-2,3′-pyrano[2,3-c]quinolin]-6-yl)carbamate] | 0.245 nM | 0.007 nM | – | –
2 | COc1ccc2nc(C(F)(F)F)c3c(c2c1)[C@@H](N1CCOCC1)C[C@]1(C[C@H]2C(=O)N[C@]4(C(=O)NS(=O)(=O)C5(C)CC5)C[C@H]4/C=C\CCCCC[C@H](NC(=O)OC(C)(C)C)C(=O)N2C1)O3 [Example 65, tert-Butyl((1′S,2R,6S,13aS,14aR,16aS,Z)-9′-methoxy-14a-(((1-methylcyclopropyl)sulfonyl)carbamoyl)-1′-morpholino-5,16-dioxo-5′-(trifluoromethyl) -1′,2′,3,5,6,7,8,9,10,11,13a,14,14a,15,16,16a-hexadecahydro-1H-spiro[cyclopropa[e]pyrrolo[1,2-a][1,4]diazacyclopentadecine-2,3′-pyrano[2,3-c]quinolin]-6-yl)carbamate] | 0.148 nM | 0.011 nM | – | –
3 | COc1ccc2nc(C(F)(F)F)c3c(c2c1)[C@H](N1CCOCC1)C[C@]1(C[C@H]2C(=O)N[C@]4(C(=O)NS(=O)(=O)C5(C)CC5)C[C@H]4/C=C\CCCCC[C@H](NC(=O)OC(C)(C)C)C(=O)N2C1)O3 [Example 66, tert-Butyl((1′R,2R,6S,13aS,14aR,16aS,Z)-9′-methoxy-14a-(((1-methylcyclopropyl)sulfonyl)carbamoyl)-1′-morpholino-5,16-dioxo-5′-(trifluoromethyl) -1′,2′,3,5,6,7,8,9,10,11,13a,14,14a,15,16,16a-hexadecahydro-1H-spiro[cyclopropa[e]pyrrolo[1,2-α][1,4]diazacyclopentadecine-2,3′-pyrano[2,3-c]quinolin]-6-yl)carbamate] | 0.148 nM | 0.011 nM | – | –
4 | CC(C)(C)OC(=O)N[C@H]1CCCCC/C=C\C2CC2(C(=O)NS(=O)(=O)C2(C)CC2)NC(=O)C2C[C@]3(CCc4c(c(C5CC5)nc5ccc(F)cc45)O3)CN2C1=O (stereo partly drawn) [Example 68, tert-butyl [(2R,6S,12Z)-5′-cyclopropyl-9′-fluoro-14a-{[(1-methylcyclopropyl)sulfonyl]carbamoyl}-5,16-dioxo-1,1′,2′,5,6,7,8,9,10,11,13a,14,14a,15,16,16a-hexadecahydrospiro[cyclopropa[e]pyrrolo[1,2-a][1,4]diazacyclopentadecine-2,3′-pyrano[2,3-c]quinolin]-6-yl]carbamate] | 0.98 nM | 0.016 nM | – | –
5 | CC(C)(C)OC(=O)N[C@H]1CCCCC/C=C\C2CC2(C(=O)NS(=O)(=O)C2(C)CC2)NC(=O)C2C[C@]3(CCc4c(c(C5CC5)nc5c(F)cccc45)O3)CN2C1=O (stereo partly drawn) [Example 69, tert-butyl [(2R,6S,12Z)-5′-cyclopropyl-7′-fluoro-14a-{[(1-methylcyclopropyl)sulfonyl]carbamoyl}-5,16-dioxo-1,1′,2′,5,6,7,8,9,10,11,13a,14,14a,15,16,16a-hexadecahydrospiro[cyclopropa[e]pyrrolo[1,2-a][1,4]diazacyclopentadecine-2,3′-pyrano[2,3-c]quinolin]-6-yl]carbamate] | – | – | 0.82 nM | 0.012 nM
6 | COc1ccc2c3c(c(C4CC4)nc2c1)O[C@]1(CC3)CC2C(=O)NC3(C(=O)NS(=O)(=O)C4(C)CC4)CC3/C=C\CCCCC[C@H](NC(=O)OC(C)(C)C)C(=O)N2C1 (stereo partly drawn) [Example 70, tert-butyl [(2R,6S,12Z)-5′-cyclopropyl-8′-methoxy-14a-{[(1-methylcyclopropyl)sulfonyl]carbamoyl}-5,16-dioxo-1,1′,2′,5,6,7,8,9,10,11,13a,14,14a,15,16,16a-hexadecahydrospiro[cyclopropa[e]pyrrolo[1,2-a][1,4]diazacyclopentadecine-2,3′-pyrano[2,3-c]quinolin]-6-yl]carbamate] | – | – | 1.39 nM | 0.028 nM
7 | Cc1nc2cc(F)ccc2c2c1O[C@]1(CC2)C[C@H]2C(=O)N[C@]3(C(=O)NS(=O)(=O)C4(C)CC4)C[C@H]3/C=C\CCCCC[C@H](NC(=O)OC(C)(C)C)C(=O)N2C1 [Example 71, tert-butyl [(2R,6S,12Z,13aS,14aR,16aS)-8′-fluoro-5′-methyl-14a-{[(1-methylcyclopropyl)sulfonyl]carbamoyl}-5,16-dioxo-1,1′,2′,5,6,7,8,9,10,11,13a,14,14a,15,16,16a-hexadecahydrospiro[cyclopropa[e]pyrrolo[1,2-a][1,4]diazacyclopentadecine-2,3′-pyrano[2,3-c]quinolin]-6-yl]carbamate] | – | – | 0.628 nM | 0.023 nM
8 | CC(C)(C)OC(=O)N[C@H]1CCCCC/C=C\[C@@H]2C[C@@]2(C(=O)NS(=O)(=O)C2(C)CC2)NC(=O)[C@@H]2C[C@@]3(CCc4c(ccc5ccccc45)O3)CN2C1=O [Example 72, tert-butyl [(3S,6′S,12′Z,13a′S,14a′R,16a′S)-14a′-{[(1-methylcyclopropyl)sulfonyl]carbamoyl}-5′,16′-dioxo-1,1′,2,5′,6′,7′,8′,9′,10′,11′,13a′,14′,14a′,15′,16′,16a′-hexadecahydrospiro[benzo[f]chromene-3,2′-cyclopropa[e]pyrrolo[1,2-a][1,4]diazacyclopentadecin]-6′-yl]carbamate] | 24.2 nM | 0.665 nM | – | –
9 | CC(C)(C)OC(=O)N[C@H]1CCCCC/C=C\[C@@H]2C[C@@]2(C(=O)NS(=O)(=O)C2(C)CC2)NC(=O)[C@@H]2C[C@]3(CCc4c(ccc5ccccc45)O3)CN2C1=O [Example 73, tert-butyl [(3R,6′S,12′Z,13a′S,14a′R,16a′S)-14a′-{[(1-methylcyclopropyl)sulfonyl]carbamoyl}-5′,16′-dioxo-1,1′,2,5′,6′,7′,8′,9′,10′,11′,13a′,14′,14a′,15′,16′,16a′-hexadecahydrospiro[benzo[f]chromene-3,2′-cyclopropa[e]pyrrolo[1,2-a][1,4]diazacyclopentadecin]-6′-yl]carbamate] | 1.71 nM | 0.12 nM | – | –
10 | Cc1nc2ccccc2c2c1O[C@@]1(CC2)C[C@H]2C(=O)N[C@]3(C(=O)NS(=O)(=O)C4(C)CC4)C[C@H]3/C=C\CCCCC[C@H](NC(=O)OC(C)(C)C)C(=O)N2C1 [Example 75, tert-butyl [(2S,6S,12Z,13aS,14aR,16a5)-5′-methyl-14a-{[(1-methylcyclopropyl)sulfonyl]carbamoyl}-5,16-dioxo-1,1′,2′,5,6,7,8,9,10,11,13a,14,14a,15,16,16a-hexadecahydrospiro[cyclopropa[e]pyrrolo[1,2-a][1,4]diazacyclopentadecine-2,3′-pyrano[2,3-c]quinolin]-6-yl]carbamate] | 7.36 nM | 0.022 nM | – | –
11 | CC(C)NC(=O)N[C@H]1CCCCC/C=C\[C@@H]2C[C@@]2(C(=O)NS(=O)(=O)C2(C)CC2)NC(=O)[C@@H]2C[C@]3(CCc4c(c(-c5cccc(F)c5)nc5ccccc45)O3)CN2C1=O [Example 85, (2R,6S,12Z,13aS,14aR,16aS)-5′-(3-fluorophenyl)-N-[(1-methylcyclopropyl)sulfonyl]-5,16-dioxo-6-[(propan-2-ylcarbamoyl)amino]-1,1′,2′,6,7,8,9,10,11,13a,14,15,16,16a-tetradecahydrospiro[cyclopropa[e]pyrrolo[1,2-a][1,4]diazacyclopentadecine-2,3′-pyrano[2,3-c]quinoline]-14a(5R)-carboxamide] | 1.31 nM | 0.013 nM | – | –
12 | Cc1ccc2nc(C)c3c(c2c1)CC[C@]1(C[C@H]2C(=O)N[C@]4(C(=O)NS(=O)(=O)C5CC5)C[C@H]4/C=C\CCCCC[C@H](NC(=O)OC(C)(C)C)C(=O)N2C1)O3 [Example 87, tert-butyl {(2R,6S,12Z,13aS,14aR,16aS)-14a-[(cyclopropylsulfonyl)carbamoyl]-5′,9′-dimethyl-5,16-dioxo-1,1′,2′,5,6,7,8,9,10,11,13a,14,14a,15,16,16a-hexadecahydrospiro[cyclopropa[e]pyrrolo[1,2-a][1,4]diazacyclopentadecine-2,3′-pyrano[2,3-c]quinolin]-6-yl}carbamate] | 5.87 nM | 0.01 nM | – | –
13 | COC(=O)N[C@H]1CCCCC/C=C\[C@@H]2C[C@@]2(C(=O)NS(=O)(=O)C2(C)CC2)NC(=O)[C@@H]2C[C@]3(CCc4c(c(-c5cccc(F)c5)nc5ccccc45)O3)CN2C1=O [Example 88, methyl [(2R,6S,12Z,13aS,14aR,16aS)-5′-(3-fluorophenyl)-14a-{[(1-methylcyclopropyl)sulfonyl]carbamoyl}-5,16-dioxo-1,1′,2′,5,6,7,8,9,10,11,13a,14,14a,15,16,16a-hexadecahydrospiro[cyclopropa[e]pyrrolo[1,2-a][1,4]diazacyclopentadecine-2,3′-pyrano[2,3-c]quinolin]-6-yl]carbamate] | 0.582 nM | 0.202 nM | – | –
